Relative activity data for three molecules are collected here from PMC12285253, “Insights into genetic determinants of volatile fatty acid catabolism in Cupriavidus necator H16” (Applied and Environmental Microbiology, 2025).

One experiment has as its target T1, H16_B1148 (Cupriavidus necator, UniProt Q0K235).
T1 construct: N-terminal hexahistidine tag, E. coli BL21(DE3) delta-patZ, Ni-NTA and SEC
T1 sequence (Q0K235 1-544): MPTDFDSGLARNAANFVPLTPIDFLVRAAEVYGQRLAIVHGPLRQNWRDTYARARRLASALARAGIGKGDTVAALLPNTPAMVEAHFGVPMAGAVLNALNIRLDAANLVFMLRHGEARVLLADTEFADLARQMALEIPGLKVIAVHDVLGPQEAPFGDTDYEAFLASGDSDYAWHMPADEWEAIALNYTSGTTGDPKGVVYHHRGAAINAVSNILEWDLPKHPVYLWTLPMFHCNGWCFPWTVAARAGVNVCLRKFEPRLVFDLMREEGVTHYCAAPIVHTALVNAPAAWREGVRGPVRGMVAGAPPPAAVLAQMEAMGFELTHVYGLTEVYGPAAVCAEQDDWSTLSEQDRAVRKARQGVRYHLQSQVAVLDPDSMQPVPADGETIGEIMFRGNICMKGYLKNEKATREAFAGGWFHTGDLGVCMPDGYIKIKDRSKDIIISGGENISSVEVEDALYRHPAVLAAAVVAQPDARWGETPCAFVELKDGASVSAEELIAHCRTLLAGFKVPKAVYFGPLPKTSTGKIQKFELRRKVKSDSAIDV
Nature of the experiment: coupled NADH assay of ATP consumption (myokinase, pyruvate kinase, lactate dehydrogenase). It is filed as biochemical. The settings on record: 2 mM substrate, 1 mM CoA, 2.1 mM ATP, 5 mM MgCl2, pH 7.5.

The target of a further experiment is T2, H16_B1335 (Cupriavidus necator, UniProt Q0K1J9).
T2 sequence (Q0K1J9 1-562): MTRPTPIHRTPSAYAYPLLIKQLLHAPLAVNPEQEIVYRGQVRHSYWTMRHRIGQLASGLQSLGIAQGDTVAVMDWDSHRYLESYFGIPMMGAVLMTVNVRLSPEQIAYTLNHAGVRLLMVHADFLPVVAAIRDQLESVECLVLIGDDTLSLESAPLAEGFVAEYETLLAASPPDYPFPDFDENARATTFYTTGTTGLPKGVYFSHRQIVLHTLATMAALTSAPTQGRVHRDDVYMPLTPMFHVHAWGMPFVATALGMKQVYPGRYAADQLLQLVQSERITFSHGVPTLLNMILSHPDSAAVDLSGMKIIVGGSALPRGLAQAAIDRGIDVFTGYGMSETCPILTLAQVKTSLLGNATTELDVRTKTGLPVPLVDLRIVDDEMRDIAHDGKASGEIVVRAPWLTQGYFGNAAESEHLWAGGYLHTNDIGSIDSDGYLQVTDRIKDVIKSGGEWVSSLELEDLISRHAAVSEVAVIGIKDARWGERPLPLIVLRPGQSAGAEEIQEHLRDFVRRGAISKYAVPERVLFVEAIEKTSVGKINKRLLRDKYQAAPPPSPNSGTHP
The experiment is described as above. As to conditions: 2 mM substrate, 1 mM CoA, 2.1 mM ATP, 5 mM MgCl2, pH 7.5. The format is biochemical.

On to `CCC(=O)O` [C3, propionate], for which the relative activity entry on H16_B1148 is “The relative activity of H16_B1148 skewed toward shorter chain lengths”. On to `CCCCCC(=O)O` [C6, hexanoate], for which the relative activity result on H16_B1335 is given as “the relative activity of H16_B1335 skewed toward longer chain lengths”.

For `CCCCC(=O)O` [C5, valerate], on H16_B1335, the relative activity entry is “our in vitro assay results demonstrating that H16_B1335 is also active on valerate”.
